Active and inactive are the calls of the source. The rule behind the calls is not given here.
Columns and labels:
Rattus norvegicus [1] = organism: Rattus norvegicus; assay: Positive allosteric modulation of GABAB receptor in rat cortical membranes assessed as potentiation of GABA-induced [35S]GTPgammaS binding after 30 mins by liquid scintillation counting analysis; assay type: functional, cell membranes; conditions: Membrane
Rattus norvegicus [2] = organism: Rattus norvegicus; assay: Positive allosteric modulation of GABAB receptor in rat cortical membranes assessed as stimulation of [35S]GTPgammaS binding up to 100 uM after 30 mins by liquid scintillation counting analysis; assay type: functional, cell membranes; conditions: Membrane
NIH3T3 = assay: Cytotoxicity against mouse NIH/3T3 cells after 24 hrs by neutral red staining-based UV/visible spectrophotometric analysis; assay type: cell-based; conditions: NIH3T3, 24 h
Rattus norvegicus [3] = organism: Rattus norvegicus; assay: Positive allosteric modulation of GABAB receptor in rat cortical membranes assessed as potentiation of GABA-induced [35S]GTPgammaS binding at 25 uM after 30 mins by liquid scintillation counting analysis relative to GABA; assay type: functional, cell membranes; conditions: Membrane
Rattus norvegicus [4] = organism: Rattus norvegicus; assay: Positive allosteric modulation of GABAB receptor in rat cortical membranes assessed as potentiation of GABA-induced [35S]GTPgammaS binding at 2.5 uM after 30 mins by liquid scintillation counting analysis relative to GABA; assay type: functional, cell membranes; conditions: Membrane
[5] = Ratio of compound IC50 to COR628 IC50 for mouse NIH/3T3 cells; assay type: ADME, cell-based, NIH3T3; conditions: read-out: Ratio IC50
[6] = Ratio of compound IC50 to COR627 IC50 for mouse NIH/3T3 cells; assay type: ADME, cell-based, NIH3T3; conditions: read-out: Ratio IC50

Structure (SMILES): CCc1c(C)sc(NS(=O)(=O)c2ccc(C)cc2)c1C(=O)OC
- Activity (Rattus norvegicus [1]): inactive
- Activity (Rattus norvegicus [2]): inactive

Structure (SMILES): COC(=O)c1c(NC(=O)C2CCCCC2)sc2c1CCCC2
- IC50 (NIH3T3): 62 µM
- Activity (Rattus norvegicus [1]): inactive
- Activity (Rattus norvegicus [2]): inactive
- Activity (Rattus norvegicus [3]): 12%
- Activity (Rattus norvegicus [4]): -5.6%

Structure (SMILES): CCc1c(C)sc(NC(=O)C2CCCC2)c1C(=O)OC
- IC50 (NIH3T3): 34 µM
- Activity (Rattus norvegicus [1]): inactive
- Activity (Rattus norvegicus [2]): inactive
- Activity (Rattus norvegicus [3]): 12.1%
- Activity (Rattus norvegicus [4]): 3%

Structure (SMILES): CCCOC(=O)c1c(NC(=O)c2ccc(Cl)cc2)sc(C)c1CC
- Activity (Rattus norvegicus [1]): inactive
- Activity (Rattus norvegicus [2]): inactive

Structure (SMILES): CCc1c(C)sc(NS(=O)(=O)C2CCCCC2)c1C(=O)OC
- Activity (Rattus norvegicus [1]): inactive
- Activity (Rattus norvegicus [2]): inactive

Structure (SMILES): CCc1c(C)sc(NC(=O)c2ccc([N+](=O)[O-])cc2)c1C(=O)OC
- Activity (Rattus norvegicus [1]): inactive
- Activity (Rattus norvegicus [2]): inactive

Structure (SMILES): CCc1c(C)sc(NC(=O)C2CCCCC2)c1C(=O)OC
- IC50 (NIH3T3): 33 µM
- Activity (Rattus norvegicus [3]): 15.1%
- Activity (Rattus norvegicus [4]): 2%

Structure (SMILES): CCc1c(C)sc(NC(=O)c2ccccc2)c1C(=O)OC
- IC50 (NIH3T3): 66 µM
- Activity (Rattus norvegicus [1]): inactive
- Activity (Rattus norvegicus [2]): inactive
- Activity (Rattus norvegicus [3]): 12%
- Activity (Rattus norvegicus [4]): 3.1%

Structure (SMILES): CCc1c(C)sc(NC(=O)c2ccc(Cl)cc2)c1C(=O)OC(C)(C)C
- Activity (Rattus norvegicus [1]): inactive
- Activity (Rattus norvegicus [2]): inactive

Structure (SMILES): N#Cc1c(NC(=O)C2CCCCC2)sc2c1CCCC2
- selectivity ratio [5]: 4
- selectivity ratio [6]: 4
- Activity (Rattus norvegicus [1]): inactive
- Activity (Rattus norvegicus [2]): inactive

Structure (SMILES): CCc1c(C)sc(NC(C)=O)c1C(=O)OC
- Activity (Rattus norvegicus [1]): inactive
- Activity (Rattus norvegicus [2]): inactive

Structure (SMILES): Cc1ncc(-c2ccc(C(F)(F)F)cc2)c(N[C@@H]2C[C@H]3CC[C@@H]2C3)n1
- IC50 (NIH3T3): 35 µM

Structure (SMILES): CCc1c(C)sc(NC(=O)c2ccc(I)cc2)c1C(=O)OC
- Activity (Rattus norvegicus [1]): inactive
- Activity (Rattus norvegicus [2]): inactive

Structure (SMILES): CCc1c(C)sc(NC(=O)c2ccc(C)cc2)c1C(=O)OC(C)(C)C
- Activity (Rattus norvegicus [1]): inactive
- Activity (Rattus norvegicus [2]): inactive

Structure (SMILES): COC(=O)c1ccsc1NC(=O)c1ccc(Cl)cc1
- Activity (Rattus norvegicus [1]): inactive
- Activity (Rattus norvegicus [2]): inactive

Structure (SMILES): COC(=O)c1ccsc1NC(=O)c1ccccc1
- Activity (Rattus norvegicus [1]): inactive
- Activity (Rattus norvegicus [2]): inactive

Structure (SMILES): CCc1c(C)sc(NC(=O)c2cccc(Cl)c2)c1C(=O)OC
- Activity (Rattus norvegicus [1]): inactive
- Activity (Rattus norvegicus [2]): inactive
- Activity (Rattus norvegicus [3]): 11%
- Activity (Rattus norvegicus [4]): 4%

Structure (SMILES): CCc1c(C)sc(NC(=O)c2ccccc2Cl)c1C(=O)OC
- Activity (Rattus norvegicus [1]): inactive
- Activity (Rattus norvegicus [2]): inactive

Source: ChEMBL document CHEMBL2346598, “Synthesis and pharmacological characterization of 2-(acylamino)thiophene derivatives as metabolically stable, orally effective, positive allosteric modulators of the GABAB receptor” (J Med Chem, 2013)
